Assay results reported in ChEMBL document CHEMBL4033708, “Synthesis and molecular docking study of some 5,6-dichloro-2-cyclopropyl-1H-benzimidazole derivatives bearing triazole, oxadiazole, and imine functionalities as potent inhibitors of urease” (Bioorg Med Chem Lett, 2017).
pIC50: −log10 of the molar value.

The compounds below were run against Urease (Canavalia ensiformis, UniProt P07374) (assay: Inhibition of jack bean urease using urea as substrate pretreated for 15 mins followed by substrate addition by phenol red based spectrophotometric method).
Sequence of Urease (P07374 whole entry): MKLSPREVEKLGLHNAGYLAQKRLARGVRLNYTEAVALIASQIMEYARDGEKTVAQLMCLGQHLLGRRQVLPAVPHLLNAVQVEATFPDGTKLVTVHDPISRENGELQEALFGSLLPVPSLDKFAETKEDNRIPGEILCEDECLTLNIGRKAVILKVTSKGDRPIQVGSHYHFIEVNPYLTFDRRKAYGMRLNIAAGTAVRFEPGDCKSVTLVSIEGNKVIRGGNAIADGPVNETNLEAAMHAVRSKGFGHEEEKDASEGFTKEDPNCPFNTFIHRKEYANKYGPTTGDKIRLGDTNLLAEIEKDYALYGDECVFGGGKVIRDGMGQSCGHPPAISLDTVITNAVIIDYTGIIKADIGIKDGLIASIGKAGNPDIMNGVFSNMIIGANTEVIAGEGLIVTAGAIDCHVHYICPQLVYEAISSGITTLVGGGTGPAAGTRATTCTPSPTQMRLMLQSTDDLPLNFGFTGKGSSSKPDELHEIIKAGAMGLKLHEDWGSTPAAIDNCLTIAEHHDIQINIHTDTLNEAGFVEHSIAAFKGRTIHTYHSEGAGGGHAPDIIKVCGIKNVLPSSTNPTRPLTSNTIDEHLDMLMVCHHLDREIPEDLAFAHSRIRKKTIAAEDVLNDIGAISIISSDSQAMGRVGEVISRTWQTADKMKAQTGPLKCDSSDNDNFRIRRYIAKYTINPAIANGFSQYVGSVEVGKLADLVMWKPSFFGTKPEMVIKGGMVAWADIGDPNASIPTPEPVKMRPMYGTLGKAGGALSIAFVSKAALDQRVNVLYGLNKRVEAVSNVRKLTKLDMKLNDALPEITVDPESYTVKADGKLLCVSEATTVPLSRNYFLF

Q: `NNC(=O)Cn1c(C2CC2)nc2cc(Cl)c(Cl)cc21` was tested. Which pIC50 did it give?
A: Its pIC50 is 5.72.

Q: How did the pIC50 turn out when `O=C(Cn1c(C2CC2)nc2cc(Cl)c(Cl)cc21)N/N=C/c1ccccc1O` was run?
A: The pIC50 was 6.66.

Q: How did the pIC50 turn out when `Clc1cc2nc(C3CC3)[nH]c2cc1Cl` was run?
A: Its pIC50 is 6.77.

Q: How did the pIC50 turn out when `O=C(Cn1c(C2CC2)nc2cc(Cl)c(Cl)cc21)N/N=C/c1cc(Br)ccc1O` was run?
A: The pIC50 was 6.85.

Q: With `Sc1nnc(Cn2c(C3CC3)nc3cc(Cl)c(Cl)cc32)o1` as the compound, how does the pIC50 read?
A: The pIC50 was 5.87.

Q: How did the pIC50 turn out when `CN(C)c1ccc(/C=N/NC(=O)Cn2c(C3CC3)nc3cc(Cl)c(Cl)cc32)cc1` was run?
A: The pIC50 was 5.83.

Q: `CCn1c(S)nnc1Cn1c(C2CC2)nc2cc(Cl)c(Cl)cc21` was tested. Which pIC50 did it give?
A: The pIC50 was 6.42.

Q: How did the pIC50 turn out when `COC(=O)Cn1c(C2CC2)nc2cc(Cl)c(Cl)cc21` was run?
A: The pIC50 was 5.95.

Q: How did the pIC50 turn out when `CCNC(=S)NNC(=O)Cn1c(C2CC2)nc2cc(Cl)c(Cl)cc21` was run?
A: Its pIC50 is 6.55.

Q: With `O=C(Cn1c(C2CC2)nc2cc(Cl)c(Cl)cc21)N/N=C/c1cc(Cl)ccc1O` as the compound, how does the pIC50 read?
A: The pIC50 was 6.82.

Q: With `O=C(Cn1c(C2CC2)nc2cc(Cl)c(Cl)cc21)N/N=C/c1ccc(F)c(Br)c1` as the compound, how does the pIC50 read?
A: The pIC50 was 7.22.

Q: With `O=C(Cn1c(C2CC2)nc2cc(Cl)c(Cl)cc21)N/N=C/c1ccccc1` as the compound, how does the pIC50 read?
A: Its pIC50 is 5.68.

Q: How did the pIC50 turn out when `CNC(=S)NNC(=O)Cn1c(C2CC2)nc2cc(Cl)c(Cl)cc21` was run?
A: Its pIC50 is 7.22 to 7.30.

Q: `O=C(Cn1c(C2CC2)nc2cc(Cl)c(Cl)cc21)N/N=C/c1ccc(Cl)cc1` was tested. Which pIC50 did it give?
A: Its pIC50 is 6.54.

Q: With `Cn1c(S)nnc1Cn1c(C2CC2)nc2cc(Cl)c(Cl)cc21` as the compound, how does the pIC50 read?
A: Its pIC50 is 6.77.

Q: With `NC(N)=S` [THIOUREA] as the compound, how does the pIC50 read?
A: The pIC50 was 6.25.
